Results published in patent publication US9163066B2, “Antimicrobial lytic peptides” (priority 2010, dated 2015).
Where two headings read alike, the source gives them in different places. Residues, ends and D or L forms follow the SMILES beside them. No end group written: not given here.

Legend:
[1] = system: red blood cells (erythrocytes); assay: Hemolytic activity of the peptides (hemoglobin release, absorbance at 412 nm); assay type: cell-based
Method: Hemolysis as defined herein is an in vitro assay where the compounds tendency to lyse red blood cells is determined. Presumably, the compounds that are less hemolytic will be less toxic in vivo. Increasing amounts of compound are added to solutions containing red blood cells and left for a specified time and then lysis is determined spectrophotometrically by measuring hemoglobin release.
A small volume of a suspension of erythrocytes (about 100 million) is kept on ice with a specific amount of lytic peptide. The cells are then placed in a 37° C. water bath for 10 min, vortexed and centrifuged at 1000 g for 2 min. The supernatant was removed and the amount of hemoglobin that was released was determined by the samples' absorbance at 412 nm. Control values without added peptide were subtracted from the absorbance readings.
The numerical difference between the value of the mean of hemolysis and the mean of the activity is a useful way to determine those peptides having the most desired activity.

bacteria = assay: Antibacterial activity of the peptides, broth microdilution MIC, mean activity (Table II); assay type: cell-based; conditions: overnight incubation (18 to 24 h)
Method: Minimum Inhibitory Concentration or MIC for the purpose of this invention is the lowest concentration of an antimicrobial that will inhibit the visible growth of a microorganism after overnight incubation. Minimum inhibitory concentrations are important in diagnostic laboratories to confirm resistance of microorganisms to an antimicrobial agent and also to monitor the activity of new antimicrobial agents. A MIC is generally regarded as the most basic laboratory measurement of the activity of an antimicrobial agent against an organism. MBC is defined as the lowest concentration of an antimicrobial agent needed to kill 99.9% of the initial organism inoculum. Presently, specific guidelines for interpretation are not available; therefore, a clinician knowledgeable in both bactericidal testing and infectious diseases should be available to interpret the results.
MICs were determined by the broth microdilution method described by the National Committee for Clinical Laboratory Standards (17). Serial twofold dilutions of each peptide solution were prepared (final volume, […]) in microtiter trays with appropriate medium. Each dilution series included control wells containing bacteria without peptide. A total of […] of the adjusted inoculum (100,000 organisms) was added to each well, and then the trays were incubated at
in ambient air overnight (18 to 24 h). The MIC of each peptide for each isolate was read as the lowest concentration of peptide that inhibited visible growth of the organism.
The above in vitro tests and analyses were conducted on a set of designed peptides of the present invention; and, for comparative purposes, naturally derived molecules.

[2] = erythrocytes, 37° C. for 10 min

Molecule | Mean of Hemolysis [1] [µM] | Mean Activity (bacteria) [µM] | Mean of Hemolysis [1, 2] [µM]
CC[C@H](C)[C@H](NC(=O)[C@H](CCCCN)NC(=O)[C@H](C)NC(=O)[C@H](CCCNC(=N)N)NC(=O)[C@H](CC(C)C)NC(=O)[C@H](CCCNC(=N)N)NC(=O)[C@@H](NC(=O)[C@H](CCCCN)NC(=O)[C@@H](NC(=O)[C@H](CCCCN)NC(=O)[C@H](C)NC(=O)[C@H](CCCNC(=N)N)NC(=O)[C@H](CC(C)C)NC(=O)[C@H](CCCCN)NC(=O)[C@@H](N)Cc1ccccc1)C(C)C)[C@@H](C)CC)C(=O)N[C@@H](CCCCN)C(=O)N[C@@H](CC(C)C)C(=O)O [AGM 155] (H-FKLRAKVKIRLRAKIKL-OH; N-terminus and C-terminus assumed) | 1.6 | – | –
CC[C@H](C)[C@H](NC(=O)[C@H](CCCCN)NC(=O)[C@@H](NC(=O)[C@H](CCCNC(=N)N)NC(=O)[C@H](CC(C)C)NC(=O)[C@H](CCCNC(=N)N)NC(=O)[C@H](C)NC(=O)[C@H](CCCCN)NC(=O)[C@@H](NC(=O)[C@H](CCCCN)NC(=O)[C@@H](N)Cc1ccccc1)[C@@H](C)CC)C(C)C)C(=O)N[C@@H](CCCCN)C(=O)N[C@@H](C)C(=O)N[C@@H](CCCNC(=N)N)C(=O)N[C@@H](CC(C)C)C(=O)N[C@@H](CCCCN)C(=O)N[C@@H](CC(C)C)C(=O)O [AGM 176] (H-FKIKARLRVKIKARLKL-OH; N-terminus and C-terminus assumed) | 1.3 | – | –
CC[C@H](C)[C@H](NC(=O)[C@H](CCCNC(=N)N)NC(=O)[C@H](CC(C)C)NC(=O)[C@H](CCCCN)NC(=O)[C@@H](NC(=O)[C@H](CCCCN)NC(=O)[C@H](C)NC(=O)[C@H](CCCNC(=N)N)NC(=O)[C@@H](NC(=O)[C@H](CCCNC(=N)N)NC(=O)[C@@H](N)Cc1ccccc1)[C@@H](C)CC)C(C)C)C(=O)N[C@@H](CCCNC(=N)N)C(=O)N[C@@H](C)C(=O)N[C@@H](CCCCN)C(=O)N[C@H](C(=O)N[C@@H](CCCNC(=N)N)C(=O)N[C@@H](CC(C)C)C(=O)O)C(C)C [AGM 178] (H-FRIRAKVKLRIRAKVRL-OH; N-terminus and C-terminus assumed) | 1.2 | – | –
CC[C@H](C)[C@H](NC(=O)[C@H](CCCNC(=N)N)NC(=O)[C@H](C)NC(=O)[C@H](CCCCN)NC(=O)[C@@H](NC(=O)[C@H](CCCCN)NC(=O)[C@H](CC(C)C)NC(=O)[C@H](CCCNC(=N)N)NC(=O)[C@@H](NC(=O)[C@H](CCCNC(=N)N)NC(=O)[C@H](C)NC(=O)[C@H](CCCCN)NC(=O)[C@@H](NC(=O)[C@H](CCCNC(=N)N)NC(=O)[C@@H](N)Cc1ccccc1)C(C)C)[C@@H](C)CC)C(C)C)C(=O)N[C@@H](CCCNC(=N)N)C(=O)N[C@@H](CC(C)C)C(=O)O [AGM 179] (H-FRVKARIRLKVKARIRL-OH; N-terminus and C-terminus assumed) | 2.1 | – | –
CC[C@H](C)[C@H](NC(=O)[C@H](CCCNC(=N)N)NC(=O)[C@@H]1CCCN1C(=O)[C@H](Cc1cnc[nH]1)NC(=O)[C@@H]1CCCN1C(=O)[C@@H]1CCCN1C(=O)[C@H](CCCNC(=N)N)NC(=O)[C@@H]1CCCN1C(=O)[C@H](CCC(N)=O)NC(=O)[C@@H]1CCCN1C(=O)[C@@H](NC(=O)[C@H](Cc1ccc(O)cc1)NC(=O)[C@@H](NC(=O)[C@@H]1CCCN1C(=O)[C@H](CCCNC(=N)N)NC(=O)[C@H](CC(N)=O)NC(=O)[C@H](CC(N)=O)NC(=O)CN)C(C)C)[C@@H](C)CC)C(=O)O [Apidaecin IA] (H-GNNRPVYIPQPRPPHPRI-OH) | 1.6 | 20.67 | –
CC[C@H](C)[C@H](NC(=O)CNC(=O)[C@H](CC(N)=O)NC(=O)[C@H](CCCNC(=N)N)NC(=O)[C@@H](NC(=O)[C@H](CC(N)=O)NC(=O)[C@H](CCCNC(=N)N)NC(=O)CNC(=O)[C@H](CCSC)NC(=O)[C@H](CCCCN)NC(=O)[C@H](CCC(=O)O)NC(=O)[C@@H](NC(=O)[C@H](CCCCN)NC(=O)[C@H](CCCCN)NC(=O)[C@H](Cc1ccccc1)NC(=O)[C@@H](NC(=O)[C@H](CCCCN)NC(=O)[C@H](Cc1c[nH]c2ccccc12)NC(=O)[C@@H](N)CCCCN)C(C)C)[C@@H](C)CC)[C@@H](C)CC)C(=O)N[C@H](C(=O)N[C@@H](CCCCN)C(=O)N[C@@H](C)C(=O)NCC(=O)N1CCC[C@H]1C(=O)N[C@@H](C)C(=O)N[C@H](C(=O)N[C@@H](C)C(=O)N[C@H](C(=O)N[C@@H](CC(C)C)C(=O)NCC(=O)N[C@@H](CCC(=O)O)C(=O)N[C@@H](C)C(=O)N[C@@H](CCCCN)C(=O)N[C@@H](C)C(=O)N[C@@H](CC(C)C)C(N)=O)C(C)C)[C@@H](C)CC)C(C)C [Cecropin B] (H-KWKVFKKIEKMGRNIRNGIVKAGPAIAVLGEAKAL-NH2) | 1.2 | – | –
CC[C@H](C)[C@H](NC(=O)[C@@H]1CCCN1C(=O)[C@H](CCCNC(=N)N)NC(=O)[C@@H]1CCCN1C(=O)[C@H](Cc1cnc[nH]1)NC(=O)[C@H](CO)NC(=O)[C@@H](NC(=O)[C@@H]1CCCN1C(=O)[C@H](CCCNC(=N)N)NC(=O)[C@@H]1CCCN1C(=O)[C@H](CO)NC(=O)[C@H](Cc1ccc(O)cc1)NC(=O)[C@@H]1CCCN1C(=O)[C@H](CCCNC(=N)N)NC(=O)[C@@H]1CCCN1C(=O)[C@H](CCCCN)NC(=O)CN)[C@@H](C)O)C(=O)N[C@@H](CCCNC(=N)N)C(=O)N[C@H](C(=O)O)C(C)C [Drosocin] (H-GKPRPYSPRPTSHPRPIRV-OH) | 1.6 | 21 | –
CC[C@H](C)[C@H](NC(=O)CN)C(=O)NCC(=O)N[C@@H](C)C(=O)N[C@H](C(=O)N[C@@H](CC(C)C)C(=O)N[C@@H](CCCCN)C(=O)N[C@H](C(=O)N[C@@H](CC(C)C)C(=O)N[C@H](C(=O)N[C@H](C(=O)NCC(=O)N[C@@H](CC(C)C)C(=O)N1CCC[C@H]1C(=O)N[C@@H](C)C(=O)N[C@@H](CC(C)C)C(=O)N[C@H](C(=O)N[C@@H](CO)C(=O)N[C@@H](Cc1c[nH]c2ccccc12)C(=O)N[C@H](C(=O)N[C@@H](CCCCN)C(=O)N[C@@H](CCCNC(=N)N)C(=O)N[C@@H](CCCCN)C(=O)N[C@@H](CCCNC(=N)N)C(=O)N[C@@H](CCC(N)=O)C(=O)N[C@@H](CCC(N)=O)C(N)=O)[C@@H](C)CC)[C@@H](C)CC)[C@@H](C)O)[C@@H](C)O)C(C)C)C(C)C [Melittin] | – | 1.33 | 100.8
Cecropin A | – | 3.83 | –
Histatin-5 | 1.8 | 30 | –
Indolicidin | 2 | 5.33 | –
LL-37 | 5.1 | 1 | –
Magainin I: Magainins: 23 amino acids in length, derived from the African Clawed Frog (GIGKFLHSAGKFGKAFVGEIMKS; Magainin-1; UniProt P11006 37-59, looked up) | 1.3 | 30 | –
Magainin II | 1.5 | 30 | –
Pyrrhocoricin (D): naturally derived molecule tested for comparative purposes (VDKGSYLPRPTPPRPIYNRN; not fully specified; UniProt P37362 1-20, looked up) | – | 23.33 | 1.9
Pyrrhocoricin (H): naturally derived molecule tested for comparative purposes (VDKGSYLPRPTPPRPIYNRN; UniProt P37362 1-20, looked up) | – | 26.67 | 1.6
